Peptide text beside a SMILES is read from it.
Key:
Human erythrocytes = experiment: Hemolytic test, human erythrocytes; type: cell-based; conditions: human erythrocytes in PBS, 1 h, 37°C, absorbance 550 nm; no death at 10 µM; 3 independent experiments in triplicate
Protocol: (§1) Blood from a mouse or healthy adult donor was centrifuged at 800 × g for 10 minutes at 4°C. The pellet containing red blood cells was then washed three times in 10 volumes of PBS and was diluted in 4% (v/v) in PBS. Blood and peptides at different concentrations were then incubated at 37°C for one hour. Cells were centrifuged 1500 × g for 5 minutes at room temperature. Hemolysis was measured in the supernatant at 550 nm. Red blood cells lysed with 1% Triton X-100 was used as a control, achieving 100% hemolysis. Percent hemolysis was calculated using the following formula: % hemolysis = 100% × [(A − A0)/(At − A0)], where A represents the absorbance of the peptide sample at 550 nm and A0 and At represent 0% and 100% hemolysis determined in 10 mM PBS and 0.1% Triton X-100, respectively.

Mouse erythrocytes = experiment: Hemolytic test, mouse erythrocytes; type: cell-based; conditions: mouse erythrocytes in PBS, 1 h, absorbance 550 nm; no death at 10 µM; 3 independent experiments in triplicate
Protocol: as §1

[1] = test system: Human primary epithelial cells; experiment: Cytotoxic assay on human primary epithelial cells; type: cell-based; conditions: 2 h, 37°C, flow cytometry, no death at 10 µM
Description: (§2) Human leukocytes were provided by the « Banco de Sangre del Hospital Regional del IMSS » and the Centro Estatal de la Transfusión Sanguínea in Cuernavaca, Morelos, Mexico. Institutional committees approved the acquisition and isolation of human peripheral blood leukocytes. Human leukocytes and erythrocytes were obtained as previously described. Mouse bone marrow cells (MBMCs) and erythrocytes were obtained from C57BL/6 or Balb/c mice. Mouse epithelial cells were isolated from C57Bl/6 mice, and human epithelial cells were recovered from surgery residues. In brief, intestinal tissues were minced and digested in 450-U/mL collagenase I, 125-U/mL collagenase XI, 60-U/mL hyaluronidase, and 60-U/mL DNAse for 1 hour before gradient density centrifugation on Histopaque-1083 (Sigma-Aldrich, St. Louis, MO). […]
(§3) 5.10^5 mouse or human leukocytes or primary epithelial cells, A549 or Jurkat E6-1 cells, were incubated in 100 µl RPMI or DMEM containing 0.5% BSA and […] with the peptides at different concentrations for 2 hours at 37°C, 5% CO2. […] Viability of leukocytes and Jurkat cells was determined by adding a viability dye (eFluor 780) and counted by FacsCanto flow cytometry with a predetermined number of beads (Polybead, Carboxylate Microspheres, Polysciences, Inc., Le Perray-en-Yvelines, France) added to the samples. […] Data were analyzed with FlowJo.

[2] = test system: Mouse primary epithelial cells; experiment: Cytotoxic assay on mouse primary epithelial cells; type: cell-based; conditions: 2 h, 37°C, flow cytometry, no death at 10 µM
Description: as §2, §3

A549 cells = experiment: A549 viability, CCK8 assay; type: cell-based, human; conditions: A549, 1 h, 37°C, duplicate, no death at 10 µM
Description: Human leukocytes were provided by the « Banco de Sangre del Hospital Regional del IMSS » and the Centro Estatal de la Transfusión Sanguínea in Cuernavaca, Morelos, Mexico. Institutional committees approved the acquisition and isolation of human peripheral blood leukocytes. Human leukocytes and erythrocytes were obtained as previously described. Mouse bone marrow cells (MBMCs) and erythrocytes were obtained from C57BL/6 or Balb/c mice. Mouse epithelial cells were isolated from C57Bl/6 mice, and human epithelial cells were recovered from surgery residues. In brief, intestinal tissues were minced and digested in 450-U/mL collagenase I, 125-U/mL collagenase XI, 60-U/mL hyaluronidase, and 60-U/mL DNAse for 1 hour before gradient density centrifugation on Histopaque-1083 (Sigma-Aldrich, St. Louis, MO). A549 cells (ATCC CCL-185), a human lung carcinoma cell line, were cultivated at 37°C in a humid atmosphere and 5% CO2, with DMEM advanced medium (Gibco®) supplemented with 5% of fetal bovine serum (FBS), 2 mM of glutamine, 100 U of penicillin, and 50 μg/mL of streptomycin (Gibco®). Jurkat E6-1 cells were cultured in an RPMI medium supplemented with 5% fetal bovine serum.
For the cell line A549, viability was assessed by the CCK8 assay (DoJindo) as indicated by the manufacturer. […] The absorbance at 450 nm was measured after 3 h incubation.

[3] = In vitro peptide stability in rat serum, RP-HPLC; type: in vitro ADME; conditions: 37°C, 300 µM peptide; for degradation of the peptide: RPMI with 25% (v/v) rat serum
Protocol: (§4) One mL of RPMI supplemented with 25% (v/v) rat serum was equilibrated at 37°C for 15 min before adding the peptide (final concentration of 300 µM). At different time points, 300 µL of the reaction solution was removed and completed to 600 µL with 96% ethanol. The sample was cooled at 4°C for 15 min and then spun to precipitate serum proteins. The supernatant was recovered and submitted to the viability assay as described in the cytotoxic assay section or analyzed by RP-HPLC on C18–300 100 × 4, 6 mm. A linear gradient from 100% buffer A (0.1% TFA in H20) to 60% of buffer B (0.1% TFA in ACN) was used over 10 min with a flow rate of 1 mL/min. The absorbance was detected at both 220 nm and 280 nm.

mouse bone marrow cells = experiment: Cytotoxic activity of peptide recovered after serum incubation; type: cell-based; conditions: then 5 µM on mouse bone marrow cells for 2 h
Protocol: 5.10^5 mouse or human leukocytes or primary epithelial cells, A549 or Jurkat E6-1 cells, were incubated in 100 µl RPMI or DMEM containing 0.5% BSA and […] with the peptides at different concentrations for 2 hours at 37°C, 5% CO2. Incubation of the cells with DMSO 30% was used as a positive control. For the kinetic assay, the cells were incubated with the peptides for different time periods. Viability of leukocytes and Jurkat cells was determined by adding a viability dye (eFluor 780) and counted by FacsCanto flow cytometry with a predetermined number of beads (Polybead, Carboxylate Microspheres, Polysciences, Inc., Le Perray-en-Yvelines, France) added to the samples. Mouse leukocytes were stained with anti-mouse Ly6G-PE, anti-mouse NK1.1-PE, anti-mouse CD11b-PerCP, and anti-mouse F4/80-APC (BD Biosciences, Rungis, France). Human leukocytes were stained with anti-human CD45-PB, anti-human CD16-PE-Cy7, anti-human CD56-PE-Cy7, anti-human CD14-FITC, anti-human CD3V500, anti-human CD8-APC, and anti-human CD4-PE. Data were analyzed with FlowJo.
as §4

Compound | toxicity for erythrocytes (hemolysis) (Human erythrocytes) | toxicity for erythrocytes (hemolysis) (Mouse erythrocytes) | toxicity for primary epithelial cells [1] | toxicity for primary epithelial cells [2] | toxicity for A549 cells (A549 cells) | degradation of the peptide ([3]; 24 h, RP-HPLC, UV 220 nm) | degradation of the peptide ([3]; after 30 min, RP-HPLC C18, UV 220 nm, intact peak area vs sum of all peptide areas, n = 3 independent experiments) | percentage of dead cells versus t0 peptide (mouse bone marrow cells; peptide (300 µM) pre-incubated with serum 15 min (t15), flow cytometry) | percentage of dead cells versus t0 peptide (mouse bone marrow cells; peptide pre-incubated with serum 30 min (t30)) | induction of cell death (mouse bone marrow cells; peptide pre-incubated with serum 24 h (t24)) | Trp λmax in aqueous buffer | time of resistance to enzymatic degradation ([3]; rat serum, title of Figure 7)
CSCC[C@H](NC(=O)[C@H](CC(N)=O)NC(=O)[C@@H](NC(=O)[C@@H](NC(=O)[C@H](C)NC(=O)[C@H](CC(N)=O)NC(=O)[C@H](CC(C)C)NC(=O)[C@@H](NC(=O)[C@H](C)NC(=O)[C@H](CCCCN)NC(=O)CNC(=O)[C@H](C)NC(=O)[C@@H](NC(=O)[C@H](CCCCN)NC(=O)CNC(=O)[C@@H](NC(=O)[C@H](CCCCN)NC(=O)[C@H](CCCCN)NC(=O)[C@H](CC(C)C)NC(=O)[C@H](CC(C)C)NC(=O)[C@@H](NC(=O)[C@H](CCCCN)NC(=O)[C@H](Cc1c[nH]c2ccccc12)NC(=O)[C@H](CC(C)C)NC(=O)[C@H](C)N)[C@@H](C)O)C(C)C)C(C)C)C(C)C)C(C)C)[C@@H](C)O)C(=O)N[C@@H](C)C(=O)N[C@@H](CC(N)=O)C(=O)N[C@@H](CCC(N)=O)C(=O)N[C@@H](CC(N)=O)C(=O)O [DRS-DA2N] (H-ALWKTLLKKVGKVAGKAVLNAVTNMANQN-OH) | not toxic | not toxic | not toxic | not toxic | not toxic | totally degraded | 40% | no significant differences | started to decrease | almost completely abolished | 355 nm | –
CSCC[C@H](NC(=O)[C@H](CC(N)=O)NC(=O)[C@@H](NC(=O)[C@@H](NC(=O)[C@H](C)NC(=O)[C@H](CC(N)=O)NC(=O)[C@H](CC(C)C)NC(=O)[C@@H](NC(=O)[C@H](C)NC(=O)[C@H](CCCCN)NC(=O)CNC(=O)[C@H](C)NC(=O)[C@@H](NC(=O)[C@H](CCCCN)NC(=O)CNC(=O)[C@@H](NC(=O)[C@H](CCCCN)NC(=O)[C@H](CCCCN)NC(=O)[C@H](CC(C)C)NC(=O)[C@H](CC(C)C)NC(=O)[C@@H](NC(=O)[C@H](CCCCN)NC(=O)[C@H](Cc1c[nH]c2ccccc12)NC(=O)[C@H](CC(C)C)NC(=O)[C@H](C)N)[C@@H](C)O)C(C)C)C(C)C)C(C)C)C(C)C)[C@@H](C)O)C(=O)N[C@@H](C)C(=O)N[C@@H](CC(N)=O)C(=O)N[C@@H](CCC(N)=O)C(=O)N[C@@H](CC(N)=O)C(=O)N[C@@H](CCC(=O)O)C(=O)N[C@@H](CCC(N)=O)C(=O)O [DRS-DA2NEQ] (H-ALWKTLLKKVGKVAGKAVLNAVTNMANQNEQ-OH) | not toxic | not toxic | not toxic | not toxic | not toxic | – | – | – | – | – | 355 nm | 15 min

— PMC10799709, “Characterization of a New Immunosuppressive and Antimicrobial Peptide, DRS-DA2, Isolated from the Mexican Frog, Pachymedusa dacnicolor” (International Journal of Inflammation, 2024)
